# Read-outs that look alike come from different tables or passages of the source.
# Assays:
# [1] = system: Streptococcus mutans UA 159; assay: MIC and MBC, broth dilution; format: cell-based
# Procedure: (§1) The minimum inhibitory concentration (MIC) and minimum bactericidal concentration (MBC) were determined for each test compound according to the National Committee for Clinical Laboratory Standards guidelines (Tentative standard M26-T, 1992; NCCLS Publication No. M7-A5, 2000) and Koo et al. (2000b). The broth microdilution and macrodilution methods (in TSB) were used for the antibacterial tests. The starting inoculum was 5×10^5 CFU/ml and the concentrations of test compounds ranged from 15.6 to 500 μM (two-fold dilutions). The MICs and MBCs were determined in quadruplicate in at least 3 different experiments.
# [2] = system: Streptococcus sobrinus 6715; assay: MIC and MBC, broth dilution; format: cell-based; conditions: Streptococcus sobrinus 6715
# Procedure: as §1
# [3] = system: Streptococcus mutans GS-5; assay: MIC and MBC, broth dilution; format: cell-based
# Procedure: as §1
# GTF D [4] = biological target: T1, GTF D (Streptococcus mutans serotype c, UniProt P49331); assay: GTF activity adsorbed onto sHA surface, GTF D; format: biochemical; conditions: for GTF D surf. % of Inhib.: mean (SD)
# T1 construct: made in house; host or cells: Streptococcus milleri NH5 (culture supernatant)
# Procedure: (§2) Glucosyltransferase activity was measured by the incorporation of [^14C-glucose] from labeled sucrose (NEN Research Products, Boston, Mass.) into glucans (Germaine et al., 1974; Venkitaraman et al., 1995). The GTF enzyme added to each sample for all assays was equivalent to the amount required to incorporate 1.0-1.5 μmol of glucose over the four hours reaction (1.0-1.5 units).
# (§3) For surface assays, the GTFs were adsorbed to hydroxyapatite beads coated with clarified whole saliva (free of GTF activity), as detailed elsewhere (Koo et al., 2000c; Schilling and Bowen, 1988, Venkitaraman et al., 1995). The saliva-coated hydroxyapatite (sHA) beads were exposed to sufficient enzyme to saturate the surface as determined experimentally. Following the adsorption of the enzyme, the beads were washed 3 times with buffer to remove the loosely bound material and exposed to 300 μl of the two-fold dilution series of test compounds (or control) for 30 min. at the same concentrations described above. The beads were washed and exposed to 300 μl [^14C-glucose]-sucrose substrate (100.0 mmol/l sucrose, final concentration). The radiolabeled glucan formed was collected and quantified by scintillation counting (Germaine et al., 1974; Venkitaraman et al., 1995). All the solution and surface assays were done in quadruplicate in at least 3 different experiments.
# GTF B [5] = biological target: T2, GTF B (Streptococcus mutans serotype c, UniProt P08987); assay: GTF activity adsorbed onto saliva-coated hydroxyapatite (sHA) surface, GTF B; format: biochemical; conditions: for GTF B surf. % of Inhib.: mean (SD)
# T2 construct: made in house; host or cells: Streptococcus milleri KSB8 (culture supernatant)
# Procedure: as §2, §3
# [6] = system: Mutans Streptococci Strains; assay: MIC and MBC, broth dilution, all strains stated together; format: cell-based, S. mutans (GS-5 and UA159) and S. sobrinus 6715
# Procedure: as §1
# GTF Ss [7] = biological target: T3, GTF Ss (Streptococcus sanguinis, UniProt A3CLJ9); assay: GTF activity in solution, GTF Ss; format: biochemical, S. sanguinis; conditions: for GTF Ss sol. % of Inhib.: mean (SD)
# Procedure: as §2
# (§4) For solution assays, purified GTF B, C, D and Ss were mixed with a two-fold dilution series of the test compounds (concentration ranging from 125 to 500 μM) and incubated with [^14C-glucose]-sucrose substrate (0.2 μCi/ml) (200.0 mmol/l sucrose, 40 μmol/l dextran 9000, 0.02% sodium azide in adsorption buffer—50 mM KCl, 1.0 mM KPO4, 1.0 mM CaCl2, 0.1 mM MgCl2−pH=6.5) to reach a final concentration of 100 mmol/l sucrose (200 μl final volume). For the control, the same reaction was carried out, where ethanol:DMSO (final concentration of 7.5% and 1.25%, v/v) or ethanol (final concentration of 5%, v/v) replaced the test agent solutions. The samples were incubated 37° C. with rocking for 4 h. After incubation, ice-cold ethanol (1.0 ml) was added and the samples were stored for 18 h, 4° C. for precipitation of glucans. Radiolabeled glucan was determined by scintillation counting (Germaine et al., 1974; Venkitaraman et al., 1995).
# GTF Ss [8] = biological target: T3, GTF Ss; assay: GTF activity adsorbed onto sHA surface, GTF Ss; format: biochemical, S. sanguinis; conditions: for GTF Ss surf. % of Inhib.: mean (SD)
# Procedure: as §2, §3
# GTF B [9] = biological target: T2, GTF B; assay: GTF activity in solution, GTF B; format: biochemical; conditions: for GTF B sol. % of Inhib.: mean (SD)
# Procedure: as §2, §4
# GTF C [10] = biological target: T4, GTF C (Streptococcus mutans serotype c, UniProt P13470); assay: GTF activity in solution, GTF C; format: biochemical; conditions: for GTF C sol. % of Inhib.: mean (SD)
# T4 construct: The supernatant was carefully collected as the source of GTF C; made in house; host or cells: Streptococcus mutans WHB 410 (endogenous gtfC; urea/Triton extract of washed cells, hydroxyapatite chromatography)
# Procedure: as §2, §4
# GTF C [11] = biological target: T4, GTF C; assay: GTF activity adsorbed onto sHA surface, GTF C; format: biochemical; conditions: for GTF C surf. % of Inhib.: mean (SD)
# Procedure: as §2, §3
# GTF D [12] = biological target: T1, GTF D; assay: GTF activity in solution, GTF D; format: biochemical; conditions: for GTF D sol. % of Inhib.: mean (SD)
# Procedure: as §2, §4
# [13] = read-out: GTF D surf. % of Inhib.
# [14] = read-out: GTF B surf. % of Inhib.
# [15] = read-out: GTF Ss sol. % of Inhib.
# [16] = read-out: GTF Ss surf. % of Inhib.
# [17] = read-out: GTF B sol. % of Inhib.
# [18] = read-out: GTF C sol. % of Inhib.
# [19] = read-out: GTF C surf. % of Inhib.
# [20] = read-out: GTF D sol. % of Inhib.
# [21] = all strains tested (S. mutans GS-5, UA159, S. sobrinus 6715), read-out: MIC
# T2 sequence (P08987 35-1476): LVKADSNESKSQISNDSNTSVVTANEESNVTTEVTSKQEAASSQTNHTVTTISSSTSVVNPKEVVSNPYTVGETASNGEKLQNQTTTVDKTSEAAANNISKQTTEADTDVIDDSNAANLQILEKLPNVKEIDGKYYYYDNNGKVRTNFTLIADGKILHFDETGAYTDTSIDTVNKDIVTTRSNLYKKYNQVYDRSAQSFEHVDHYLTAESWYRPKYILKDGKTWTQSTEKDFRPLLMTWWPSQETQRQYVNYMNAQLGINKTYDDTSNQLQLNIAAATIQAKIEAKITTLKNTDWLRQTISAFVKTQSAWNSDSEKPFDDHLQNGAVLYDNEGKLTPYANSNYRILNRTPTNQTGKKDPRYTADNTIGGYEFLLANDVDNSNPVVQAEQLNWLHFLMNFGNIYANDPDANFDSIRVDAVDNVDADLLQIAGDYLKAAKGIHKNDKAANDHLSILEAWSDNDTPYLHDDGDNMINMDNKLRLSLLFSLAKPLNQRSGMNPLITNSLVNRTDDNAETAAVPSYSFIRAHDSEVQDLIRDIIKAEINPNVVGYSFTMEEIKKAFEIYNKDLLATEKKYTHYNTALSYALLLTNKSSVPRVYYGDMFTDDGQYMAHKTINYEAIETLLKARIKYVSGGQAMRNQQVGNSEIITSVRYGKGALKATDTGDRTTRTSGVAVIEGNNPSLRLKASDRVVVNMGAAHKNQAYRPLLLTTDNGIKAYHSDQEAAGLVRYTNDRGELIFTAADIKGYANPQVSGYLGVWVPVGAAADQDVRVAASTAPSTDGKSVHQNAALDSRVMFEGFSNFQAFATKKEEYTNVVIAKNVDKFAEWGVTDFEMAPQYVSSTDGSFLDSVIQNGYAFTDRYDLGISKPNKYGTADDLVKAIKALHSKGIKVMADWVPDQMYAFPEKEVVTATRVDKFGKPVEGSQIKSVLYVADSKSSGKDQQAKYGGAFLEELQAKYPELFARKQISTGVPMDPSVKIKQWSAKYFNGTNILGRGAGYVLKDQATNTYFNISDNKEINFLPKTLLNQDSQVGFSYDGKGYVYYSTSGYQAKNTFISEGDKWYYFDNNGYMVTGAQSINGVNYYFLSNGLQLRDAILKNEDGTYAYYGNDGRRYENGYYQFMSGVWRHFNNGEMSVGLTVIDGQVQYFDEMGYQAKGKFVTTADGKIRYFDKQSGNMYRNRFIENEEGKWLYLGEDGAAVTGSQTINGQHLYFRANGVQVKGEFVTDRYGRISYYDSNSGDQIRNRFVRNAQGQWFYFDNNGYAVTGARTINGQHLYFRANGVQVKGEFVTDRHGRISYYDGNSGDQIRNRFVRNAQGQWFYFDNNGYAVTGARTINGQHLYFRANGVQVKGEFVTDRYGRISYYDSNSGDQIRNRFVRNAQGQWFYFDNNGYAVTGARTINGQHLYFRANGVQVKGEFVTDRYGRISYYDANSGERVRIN
# T4 sequence (P13470 35-1455): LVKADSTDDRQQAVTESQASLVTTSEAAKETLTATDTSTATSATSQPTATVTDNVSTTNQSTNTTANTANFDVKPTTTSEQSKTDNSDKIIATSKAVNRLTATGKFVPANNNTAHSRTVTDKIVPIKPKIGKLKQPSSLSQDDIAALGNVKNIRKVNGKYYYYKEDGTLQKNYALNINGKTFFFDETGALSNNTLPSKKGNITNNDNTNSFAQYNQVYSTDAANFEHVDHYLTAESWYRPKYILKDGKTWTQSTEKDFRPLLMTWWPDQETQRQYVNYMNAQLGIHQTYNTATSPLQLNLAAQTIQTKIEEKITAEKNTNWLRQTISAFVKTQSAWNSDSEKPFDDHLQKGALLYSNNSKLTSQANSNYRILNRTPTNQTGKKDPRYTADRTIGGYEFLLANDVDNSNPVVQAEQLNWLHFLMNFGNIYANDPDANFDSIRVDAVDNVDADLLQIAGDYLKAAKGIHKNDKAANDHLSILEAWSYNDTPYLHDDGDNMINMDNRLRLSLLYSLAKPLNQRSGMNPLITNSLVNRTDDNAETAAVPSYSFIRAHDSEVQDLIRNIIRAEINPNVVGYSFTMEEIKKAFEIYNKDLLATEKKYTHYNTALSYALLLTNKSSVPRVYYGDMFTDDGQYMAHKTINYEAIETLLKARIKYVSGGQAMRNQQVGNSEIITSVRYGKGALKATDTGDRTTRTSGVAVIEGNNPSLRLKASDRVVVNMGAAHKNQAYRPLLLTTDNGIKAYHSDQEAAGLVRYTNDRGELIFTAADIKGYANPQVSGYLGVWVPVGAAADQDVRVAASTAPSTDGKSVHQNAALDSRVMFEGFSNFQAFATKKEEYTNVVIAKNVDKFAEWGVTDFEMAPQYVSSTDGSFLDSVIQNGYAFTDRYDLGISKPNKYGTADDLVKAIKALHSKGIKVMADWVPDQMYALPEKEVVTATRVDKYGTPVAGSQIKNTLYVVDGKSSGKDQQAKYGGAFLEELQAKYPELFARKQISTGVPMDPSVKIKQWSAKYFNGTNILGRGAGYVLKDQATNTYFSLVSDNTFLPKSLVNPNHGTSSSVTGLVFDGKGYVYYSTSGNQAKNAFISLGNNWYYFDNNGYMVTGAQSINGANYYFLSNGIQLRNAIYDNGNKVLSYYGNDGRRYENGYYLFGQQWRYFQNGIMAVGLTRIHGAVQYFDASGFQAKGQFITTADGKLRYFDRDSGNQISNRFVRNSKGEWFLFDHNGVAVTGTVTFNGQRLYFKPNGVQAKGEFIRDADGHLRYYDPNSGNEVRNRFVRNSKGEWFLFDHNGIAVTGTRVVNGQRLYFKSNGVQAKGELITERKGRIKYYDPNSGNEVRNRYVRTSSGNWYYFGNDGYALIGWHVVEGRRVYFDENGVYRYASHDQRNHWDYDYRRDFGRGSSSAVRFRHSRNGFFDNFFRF
# T1 sequence (P49331 whole entry): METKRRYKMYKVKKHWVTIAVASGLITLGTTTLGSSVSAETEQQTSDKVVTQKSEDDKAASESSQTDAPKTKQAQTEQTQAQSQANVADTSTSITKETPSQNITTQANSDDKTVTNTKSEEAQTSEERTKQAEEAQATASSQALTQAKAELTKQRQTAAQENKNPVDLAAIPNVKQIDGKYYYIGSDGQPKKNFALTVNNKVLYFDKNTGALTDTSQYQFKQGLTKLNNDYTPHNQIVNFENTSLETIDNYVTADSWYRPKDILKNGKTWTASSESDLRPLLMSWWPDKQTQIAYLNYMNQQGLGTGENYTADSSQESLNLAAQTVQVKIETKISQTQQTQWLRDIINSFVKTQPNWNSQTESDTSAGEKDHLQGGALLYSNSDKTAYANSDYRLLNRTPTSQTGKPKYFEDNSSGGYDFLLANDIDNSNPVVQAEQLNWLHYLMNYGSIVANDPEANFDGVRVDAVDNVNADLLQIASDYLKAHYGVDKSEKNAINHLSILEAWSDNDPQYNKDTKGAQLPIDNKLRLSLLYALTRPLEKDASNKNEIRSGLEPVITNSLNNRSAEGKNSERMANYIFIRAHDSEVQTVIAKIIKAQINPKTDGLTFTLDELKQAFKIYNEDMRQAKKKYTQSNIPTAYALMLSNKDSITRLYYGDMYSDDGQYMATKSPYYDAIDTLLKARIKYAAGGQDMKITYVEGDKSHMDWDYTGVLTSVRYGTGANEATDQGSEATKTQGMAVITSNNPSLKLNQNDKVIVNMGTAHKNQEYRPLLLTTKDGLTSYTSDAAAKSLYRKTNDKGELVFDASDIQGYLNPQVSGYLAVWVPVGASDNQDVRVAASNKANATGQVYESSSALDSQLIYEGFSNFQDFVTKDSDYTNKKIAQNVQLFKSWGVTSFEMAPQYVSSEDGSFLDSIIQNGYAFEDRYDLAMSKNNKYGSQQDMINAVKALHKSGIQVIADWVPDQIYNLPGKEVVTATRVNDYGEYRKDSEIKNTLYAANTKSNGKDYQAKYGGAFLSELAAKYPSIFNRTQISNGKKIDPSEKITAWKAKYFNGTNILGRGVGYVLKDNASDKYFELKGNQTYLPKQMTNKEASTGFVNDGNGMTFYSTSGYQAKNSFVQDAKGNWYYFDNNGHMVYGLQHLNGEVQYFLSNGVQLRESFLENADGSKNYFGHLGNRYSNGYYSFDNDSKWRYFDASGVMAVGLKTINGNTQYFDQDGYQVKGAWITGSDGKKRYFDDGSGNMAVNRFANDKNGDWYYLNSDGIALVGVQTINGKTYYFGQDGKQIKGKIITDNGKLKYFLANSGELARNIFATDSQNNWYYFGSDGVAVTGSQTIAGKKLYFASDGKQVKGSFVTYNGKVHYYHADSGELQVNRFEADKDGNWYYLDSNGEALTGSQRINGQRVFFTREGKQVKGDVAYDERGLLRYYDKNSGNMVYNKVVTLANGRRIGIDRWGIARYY
smiles,measurement,setting,value
COc1cc(O)c2c(c1)O[C@H](c1ccc(O)cc1)CC2=O [Sakuranetin],MBC,[1],>500 µM
same,MIC,[1],>500 µM
same,MBC,[2],>500 µM
same,MIC,[2],500 µM
same,MBC,[3],>500 µM
same,MIC,[3],>500 µM
O=c1c(O)c(-c2ccc(O)cc2)oc2cc(O)cc(O)c12 [Kaempferol],inhibition at 125 µM,GTF D [4]; [13],20.4%
same,inhibition at 250 µM,GTF D [4]; [13],23.5%
same,inhibition at 500 µM,GTF D [4]; [13],28.5%
same,inhibition at 125 µM,GTF B [5]; [14],9.9%
same,inhibition at 250 µM,GTF B [5]; [14],27.8%
same,inhibition at 500 µM,GTF B [5]; [14],40.2%
same,MIC,[6]; Streptococcus mutans,> 500 µM
same,inhibition at 125 µM,GTF Ss [7]; [15],37.6%
same,inhibition at 250 µM,GTF Ss [7]; [15],43.1%
same,inhibition at 500 µM,GTF Ss [7]; [15],88.9%
same,inhibition at 125 µM,GTF Ss [8]; [16],9.7%
same,inhibition at 250 µM,GTF Ss [8]; [16],8.8%
same,inhibition at 500 µM,GTF Ss [8]; [16],19.2%
same,inhibition at 125 µM,GTF B [9]; [17],32.4%
same,inhibition at 250 µM,GTF B [9]; [17],80.6%
same,inhibition at 500 µM,GTF B [9]; [17],90.4%
same,inhibition at 125 µM,GTF C [10]; [18],41.9%
same,inhibition at 250 µM,GTF C [10]; [18],82.2%
same,inhibition at 500 µM,GTF C [10]; [18],90.2%
same,inhibition at 125 µM,GTF C [11]; [19],24.2%
same,inhibition at 250 µM,GTF C [11]; [19],25.8%
same,inhibition at 500 µM,GTF C [11]; [19],35.2%
same,inhibition at 125 µM,GTF D [12]; [20],39.1%
same,inhibition at 250 µM,GTF D [12]; [20],76.7%
same,inhibition at 500 µM,GTF D [12]; [20],86.7%
COc1cc(C=O)cc(OC)c1O [Syringaldehyde],MIC,[6]; Streptococcus mutans,> 500 µM
COc1cc(C=O)ccc1O [Vanillin],MIC,"[6]; Streptococcus mutans, all strains tested (S. mutans GS-5, UA159, S. sobrinus 6715), read-out: MIC",> 500 µM
CC(=O)O[C@H]1C(=O)c2c(O)cc(O)cc2O[C@@H]1c1ccccc1 [Pinobanksin-3-acetate],GTF D surf. % of Inhib.,GTF D [4]; 125 μM,0.0 (0.0) %
same,GTF D surf. % of Inhib.,GTF D [4]; 250 μM,4.5 (2.0) %
same,GTF D surf. % of Inhib.,GTF D [4]; 500 μM,10.1 (2.8) %
same,GTF B surf. % of Inhib.,GTF B [5]; 125 μM,9.4 (4.8) %
same,GTF B surf. % of Inhib.,GTF B [5]; 250 μM,7.3 (2.1) %
same,GTF B surf. % of Inhib.,GTF B [5]; 500 μM,10.3 (3.5) %
same,MBC,[1],>500 µM
same,MIC,[1],500 µM
same,MBC,[2],>500 µM
same,MIC,[2],250 µM
same,MBC,[3],>500 µM
same,MIC,[3],500 µM
same,MIC,[6]; all strains tested,157 µg/mL
same,MIC,[6]; [21],500 µM
same,GTF Ss sol. % of Inhib.,GTF Ss [7]; 125 μM,4.6 (5.7) %
same,GTF Ss sol. % of Inhib.,GTF Ss [7]; 250 μM,22.8 (3.6) %
same,GTF Ss sol. % of Inhib.,GTF Ss [7]; 500 μM,30.5 (7.2) %
same,GTF Ss surf. % of Inhib.,GTF Ss [8]; 125 μM,0.0 (0.6) %
same,GTF Ss surf. % of Inhib.,GTF Ss [8]; 250 μM,0.0 (2.7) %
same,GTF Ss surf. % of Inhib.,GTF Ss [8]; 500 μM,9.9 (5.9) %
same,GTF B sol. % of Inhib.,GTF B [9]; 125 μM,0.0 (0.8) %
same,GTF B sol. % of Inhib.,GTF B [9]; 250 μM,7.7 (3.5) %
same,GTF B sol. % of Inhib.,GTF B [9]; 500 μM,18.9 (2.8) %
same,GTF C sol. % of Inhib.,GTF C [10]; 125 μM,0.0 (0.0) %
same,GTF C sol. % of Inhib.,GTF C [10]; 250 μM,3.5 (4.2) %
same,GTF C sol. % of Inhib.,GTF C [10]; 500 μM,16.7 (4.3) %
same,GTF C surf. % of Inhib.,GTF C [11]; 125 μM,0.0 (0.1) %
same,GTF C surf. % of Inhib.,GTF C [11]; 250 μM,0.0 (0.0) %
same,GTF C surf. % of Inhib.,GTF C [11]; 500 μM,0.0 (3.3) %
same,GTF D sol. % of Inhib.,GTF D [12]; 125 μM,5.5 (4.5) %
same,GTF D sol. % of Inhib.,GTF D [12]; 250 μM,2.7 (3.3) %
same,GTF D sol. % of Inhib.,GTF D [12]; 500 μM,3.5 (2.1) %
O=c1cc(-c2ccccc2)oc2cc(O)c(O)c(O)c12 [Baicalein],MBC,[1],>500 µM
same,MIC,[1],500 µM
same,MBC,[2],>500 µM
same,MIC,[2],500 µM
same,MBC,[3],>500 µM
same,MIC,[3],500 µM
same,MIC,[6]; [21],500 µM

# Source: patent US20040057908A1, “Oral compositions and use thereof” (priority 2003, published 2004)
